In patent publication US20240317752A1, “6-SUBSTITUTED-9H-PURINE DERIVATIVES AND RELATED USES” (Black Diamond Therapeutics, Inc., priority 2021, published 2024):

These molecules were tested against T1, BaF3 BRAF-KIAA1549 fusion cells (Homo sapiens, UniProt P15056) (assay: BaF3 BRAF-KIAA1549 fusion cell proliferation assay (CellTiterGlo)). Settings: 96 hours incubation, potency code.
T1 construct: The BRAF-KIAA1549 fusion mutant was subcloned into pMXs-IRES-Blasticidin (RTV-016, Cell Biolabs, San Diego, CA); fused on or other part: Q9HCM3 (UPF0606 protein KIAA1549)
Format: cell-based
Experimental: Retroviral Production: The BRAF-KIAA1549 fusion mutant was subcloned into pMXs-IRES-Blasticidin (RTV-016, Cell Biolabs, San Diego, CA). Retrovirus was produced by transfection of HEK 293T cells with the retroviral BRAF mutant expression vector pMXs-IRES-Blasticidin (RTV-016, Cell Biolabs), pCMV-Gag-Pol vector and pCMV-VSV-G-Envelope vector. Briefly, HEK 293T cells were plated in Poly-D-lysine coated 6-well plate (2.5×10^5 cells per well) and incubated overnight. The next day, retroviral plasmids (1 μg of BRAF-KIAA fusion mutant, 0.32 μg of pCMV-Gag-Pol and 0.165 μg pCMV-VSV-G) were mixed in 300 μL of Optimem (31985, Life Technologies). The mixture was incubated at room temperature for 5 minutes and then added to Optimem containing transfection reagent Lipofectamine (11668, Invitrogen) and incubated for 20 minutes. The mixture was then added dropwise to HEK 293T cells. The next day the medium was replaced with fresh culture medium and retrovirus was harvested at 24 hours.
Generation of BRAF-KIAA1549 fusion stable cell line: BaF3 cells were plated in V-bottom 96 well plate (COSTAR #3894) in 80 μL of RPMI/10% FBS and 0.01 ng/ml mouse IL-3; supplemented with 8 μg/mL polybrene (4×10^4 cells/well). Cells were transduced with 20 μL of BRAF-KIAA1549 fusion viral supernatant by centrifuging for 30 minutes at 1000 rpm. Cells were placed in a 37° C. incubator overnight. Next day 100 μL of RPMI/10% FBS and 0.01 ng/ml mouse IL-3 was added. After 24 hours, 100 μL of cells were transferred to a 24 well plate containing 900 μL of RPMI/10% FBS and 15 μg/mL Blasticidin. Contents of the 24 well plate were sampled for cell viability via CellTiterGlo (Promega) over a 2-week period.
Assay for cell proliferation: BaF3 BRAF-KIAA1549 fusion cells were resuspended at 1.5×10^5c/mL in RPMI containing 10% Heat Inactivated FBS, 1% L-glutamine and dispensed in duplicate ([…]) into 384 well plates. To determine the effect of compound on cell proliferation, BaF3 BRAF-KIAA1549 fusion cells were incubated for 96 hours in the presence of vehicle control (DMSO) or compound at varying concentrations. Inhibition of cell growth was determined by luminescent quantification (Envision by Perkin Elmer) of intracellular ATP content using CellTiterGlo (Promega), according to the protocol provided by the manufacturer. To determine the IC50 values, the vehicle-treated cells were normalized as viable cells and analyzed using the CDD Vault, Collaborative Drug Discovery, Burlingame, CA (the Levenberg-Marquardt algorithm; Levenberg, K., […]; Marquardt, D., 1963).
Tables A1 and A2 assign each compound a code for potency in the BaF3 BRAF-KIAA1549 fusion cell proliferation assay: A, B, C, or D. According to the code, A represents an IC50 value <20 nM; B represents an IC50 value ≥20 nM and <100 nM; C represents an IC50 value ≥100 nM and <500 nM; and D represents an IC50 value ≥500 nM.

T1 sequence (P15056 whole entry, change not shown, the tested form may be a part): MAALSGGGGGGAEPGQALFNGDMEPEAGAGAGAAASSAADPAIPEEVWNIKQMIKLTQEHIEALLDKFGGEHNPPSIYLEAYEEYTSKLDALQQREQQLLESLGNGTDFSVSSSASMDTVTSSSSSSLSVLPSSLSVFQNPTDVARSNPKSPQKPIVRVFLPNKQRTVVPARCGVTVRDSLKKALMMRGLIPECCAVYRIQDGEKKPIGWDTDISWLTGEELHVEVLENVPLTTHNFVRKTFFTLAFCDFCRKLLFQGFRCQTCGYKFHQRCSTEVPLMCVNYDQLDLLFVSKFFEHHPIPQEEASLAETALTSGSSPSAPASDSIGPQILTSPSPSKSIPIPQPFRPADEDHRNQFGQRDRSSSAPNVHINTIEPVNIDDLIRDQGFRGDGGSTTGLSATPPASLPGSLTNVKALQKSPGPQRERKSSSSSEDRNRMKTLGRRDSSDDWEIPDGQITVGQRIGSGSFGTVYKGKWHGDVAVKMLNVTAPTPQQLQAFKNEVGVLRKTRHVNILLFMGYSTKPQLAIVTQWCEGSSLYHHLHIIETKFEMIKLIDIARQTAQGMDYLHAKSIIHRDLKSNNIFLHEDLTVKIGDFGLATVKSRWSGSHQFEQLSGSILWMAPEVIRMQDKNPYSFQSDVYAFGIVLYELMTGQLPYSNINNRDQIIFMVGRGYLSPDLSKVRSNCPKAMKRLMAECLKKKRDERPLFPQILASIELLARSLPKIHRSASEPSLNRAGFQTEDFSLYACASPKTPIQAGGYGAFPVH

GI50 [nM] | SMILES
20 to 100 | Cc1ccc(NC(=O)c2ccc(Cl)c(C(C)(C)C#N)c2)cc1Nc1ncccc1-c1ncnc2[nH]cnc12 [Compound I-37, N-(3-((3-(9H-purin-6-yl)pyridin-2-yl)amino)-4-methylphenyl)-4-chloro-3-(2-cyanopropan-2-yl)benzamide]
20 to 100 | Cc1ccc(NC(=O)c2ccc(Cl)c(C3(C#N)CC3)c2)cc1Nc1ncccc1-c1ncnc2[nH]cnc12 [Compound I-38, N-(3-((3-(9H-purin-6-yl)pyridin-2-yl)amino)-4-methylphenyl)-4-chloro-3-(1-cyanocyclopropyl)benzamide]
≥ 500 | Cc1ccc(NC(=O)c2cc(C#N)c(Cl)cn2)cc1Nc1ncccc1-c1ncnc2[nH]cnc12 [Compound I-39, N-(3-((3-(9H-purin-6-yl)pyridin-2-yl)amino)-4-methylphenyl)-5-chloro-4-cyanopicolinamide]
≥ 500 | Cc1ncc(NC(=O)c2ccc(Cl)c(C#N)c2)cc1Nc1ncccc1-c1ncnc2[nH]cnc12 [Compound I-40, N-(5-((3-(9H-purin-6-yl)pyridin-2-yl)amino)-6-methylpyridin-3-yl)-4-chloro-3-cyanobenzamide]
< 20 | COc1cc(C(=O)Nc2ccc(C)c(Nc3ncccc3-c3ncnc4[nH]cnc34)c2)ccc1Cl [Compound I-41, N-(3-((3-(9H-purin-6-yl)pyridin-2-yl)amino)-4-methylphenyl)-4-chloro-3-methoxybenzamide]
< 20 | Cc1ccc(NC(=O)c2ccc(C(F)(F)F)c(C#N)c2)cc1Nc1ncccc1-c1ncnc2[nH]cnc12 [Compound I-42, N-(3-((3-(9H-purin-6-yl)pyridin-2-yl)amino)-4-methylphenyl)-3-cyano-4-(trifluoromethyl)benzamide]
< 20 | Cc1ccc(C(=O)Nc2ccc(C)c(Nc3ncccc3-c3ncnc4[nH]cnc34)c2)cc1C#N [Compound I-43, N-(3-((3-(9H-purin-6-yl)pyridin-2-yl)amino)-4-methylphenyl)-3-cyano-4-methylbenzamide]
< 20 | Cc1ccc(NC(=O)CC2CCCC(C(F)(F)F)C2)cc1Nc1ncccc1-c1ncnc2[nH]cnc12 (stereo not drawn) [Compound I-47, N-(3-((3-(9H-purin-6-yl)pyridin-2-yl)amino)-4-methylphenyl)-2-(3-(trifluoromethyl)cyclohexyl)acetamide]
≥ 500 | Cc1ccc(NC(=O)c2cnc(C)c(C#N)c2)cc1Nc1ncccc1-c1ncnc2[nH]cnc12 [Compound I-48, N-(3-(3-(9H-purin-6-yl)pyridin-2-ylamino)-4-methylphenyl)-5-cyano-6-methylnicotinamide]
< 20 | Cc1ccc(NC(=O)c2ccc(Cl)c(Cl)c2)cc1Nc1ncccc1-c1ncnc2[nH]cnc12 [Compound I-49, N-(3-(3-(9H-purin-6-yl)pyridin-2-ylamino)-4-methylphenyl)-3,4-dichlorobenzamide]
20 to 100 | N#Cc1cc(C(=O)Nc2ccc(F)c(Nc3ncccc3-c3ncnc4[nH]cnc34)c2)ccc1Cl [Compound I-50, N-(3-(3-(9H-purin-6-yl)pyridin-2-ylamino)-4-fluorophenyl)-4-chloro-3-cyanobenzamide]
≥ 500 | Cc1ccc(NC(=O)c2ccc(C)c(C#N)n2)cc1Nc1ncccc1-c1ncnc2[nH]cnc12 [Compound I-51, N-(3-(3-(9H-purin-6-yl)pyridin-2-ylamino)-4-methylphenyl)-6-cyano-5-methylpicolinamide]
20 to 100 | Cc1ncc(C(=O)Nc2cccc(C(F)(F)F)c2)cc1Nc1ncccc1-c1ncnc2[nH]cnc12 [Compound I-52, 5-((3-(9H-purin-6-yl)pyridin-2-yl)amino)-6-methyl-N-(3-(trifluoromethyl)phenyl)nicotinamide]
20 to 100 | Cc1c(F)cc(C(=O)Nc2cccc(C(F)(F)F)c2)cc1Nc1ncccc1-c1ncnc2[nH]cnc12 [Compound I-53, 3-((3-(9H-purin-6-yl)pyridin-2-yl)amino)-5-fluoro-4-methyl-N-(3-(trifluoromethyl)phenyl)benzamide]
20 to 100 | Cc1ncc(NC(=O)c2ccnc(C3(C#N)CC3)c2)cc1Nc1ncccc1-c1ncnc2[nH]cnc12 [Compound I-54, N-(5-(3-(9H-purin-6-yl)pyridin-2-ylamino)-6-methylpyridin-3-yl)-2-(1-cyanocyclopropyl)isonicotinamide]
< 20 | Cc1ccc(NC(=O)c2cc(C3CC3)ccn2)cc1Nc1ncccc1-c1ncnc2[nH]cnc12 [Compound I-55, N-(3-(3-(9H-purin-6-yl)pyridin-2-ylamino)-4-methylphenyl)-4-cyclopropylpicolinamide]
≥ 500 | Cc1ccc(NC(=O)c2cc(C3CC3)c(Cl)cn2)cc1Nc1ncccc1-c1ncnc2[nH]cnc12 [Compound I-56, N-(3-((3-(9H-purin-6-yl)pyridin-2-yl)amino)-4-methylphenyl)-5-chloro-4-cyclopropylpicolinamide]
≥ 500 | Cc1ccc(NC(=O)c2cccc(C(C)(C)C#N)c2)nc1Nc1ncccc1-c1ncnc2[nH]cnc12 [Compound I-57, N-(6-((3-(9H-purin-6-yl)pyridin-2-yl)amino)-5-methylpyridin-2-yl)-3-(2-cyanopropan-2-yl)benzamide]
20 to 100 | Cc1ncc(C(=O)Nc2cccc(C3(C#N)CC3)c2)cc1Nc1ncccc1-c1ncnc2[nH]cnc12 [Compound I-58, 5-((3-(9H-purin-6-yl)pyridin-2-yl)amino)-N-(3-(1-cyanocyclopropyl)phenyl)-6-methylnicotinamide]
100 to 500 | Cc1ccc(NC(=O)c2ccc(C(F)(F)F)c(C#N)n2)cc1Nc1ncccc1-c1ncnc2[nH]cnc12 [Compound I-59, N-(3-((3-(9H-purin-6-yl)pyridin-2-yl)amino)-4-methylphenyl)-6-cyano-5-(trifluoromethyl)picolinamide]
< 20 | Cc1c(F)cc(C(=O)Nc2cccc(C3(C#N)CC3)c2)cc1Nc1ncccc1-c1ncnc2[nH]cnc12 [Compound I-60, 3-((3-(9H-purin-6-yl)pyridin-2-yl)amino)-N-(3-(1-cyanocyclopropyl)phenyl)-5-fluoro-4-methylbenzamide]
20 to 100 | Cc1ncc(NC(=O)c2ccnc(C3(F)CC3)c2)cc1Nc1ncccc1-c1ncnc2[nH]cnc12 [Compound I-61, N-(5-((3-(9H-purin-6-yl)pyridin-2-yl)amino)-6-methylpyridin-3-yl)-2-(1-fluorocyclopropyl)isonicotinamide]
< 20 | Cc1c(F)cc(NC(=O)c2ccnc(C3(C#N)CC3)c2)cc1Nc1ncccc1-c1ncnc2[nH]cnc12 [Compound I-62, N-(3-((3-(9H-purin-6-yl)pyridin-2-yl)amino)-5-fluoro-4-methylphenyl)-2-(1-cyanocyclopropyl)isonicotinamide]
100 to 500 | Cc1cc(NC(=O)c2cc(C(F)(F)F)ccn2)cc(Nc2ncccc2-c2ncnc3[nH]cnc23)c1C [Compound I-63, N-(3-((3-(9H-purin-6-yl)pyridin-2-yl)amino)-4,5-dimethylphenyl)-4-(trifluoromethyl)picolinamide]
< 20 | Cc1ccc(NC(=O)c2cc(C3(C#N)CCC3)ccn2)cc1Nc1ncccc1-c1ncnc2[nH]cnc12 [Compound I-64, N-(3-((3-(9H-purin-6-yl)pyridin-2-yl)amino)-4-methylphenyl)-4-(1-cyanocyclobutyl)picolinamide]
< 20 | Cc1ccc(NC(=O)c2nccc(C(F)(F)F)c2C)cc1Nc1ncccc1-c1ncnc2[nH]cnc12 [Compound I-65, N-(3-((3-(9H-purin-6-yl)pyridin-2-yl)amino)-4-methylphenyl)-3-methyl-4-(trifluoromethyl)picolinamide]
< 20 | Cc1ccc(NC(=O)c2ccnc(C3(C#N)CCC3)c2)cc1Nc1ncccc1-c1ncnc2[nH]cnc12 [Compound I-66, N-(3-((3-(9H-purin-6-yl)pyridin-2-yl)amino)-4-methylphenyl)-2-(1-cyanocyclobutyl)isonicotinamide]
